In patent US20260055118A1, “VISIBLE LIGHT SENSITIVE PHOTOREMOVABLE PROTECTING GROUPS, PREPARATION PROCESS THEREOF, PHOTOACTIVATABLE CONJUGATES COMPRISING THEM AND USES THEREOF” (HUN-REN TERMÉSZETTUDOMÁNYI KUTATÓKÖZPONT, priority 2022, published 2026):

Key:
Assay type in all cases: physicochemical
[1] = Spectroscopic properties of the target conjugates in PBS; details: for ε (molar absorption coefficient): at the absorption maximum
Procedure: All starting materials were obtained from commercial suppliers and used without further purification. Analytical thin-layer chromatography (TLC) was performed on silica gel 60 F254 precoated aluminum TLC plates from Merck. Flash column chromatography was performed on Teledyne Isco CombiFlash® Rf+ automated flash chromatographer with silica gel (25-40 μm) from Zeochem. NMR spectra were recorded on a Varian Inova 500 MHz spectrometer. Chemical shifts (δ) are given in parts per million (ppm) using solvent signals or TMS as the reference. Coupling constants (J) are reported in Hertz (Hz). Analytical RP-HPLC-UV/Vis-MS measurements were employed using a Shimadzu LCMS-2020 instrument applying a Gemini C18 column (100×2.00 mm I.D.) in which the stationary phase is […] with a pore size of 110 Å. The chromatograms were detected by a UV-Vis diode array (190-800 nm) and an ESI-MS detector. The following linear gradient elution profile was applied, 0 min 0% B; 6.5 min 100% B; 7 min 0% B; 8 min. 0% B) with eluent A (2% HCOOH, 5% MeCN and 93% water) and B (2% HCOOH, 80% MeCN and 18% water) at a flow rate of 1.0 mL min-1 at 30° C. The samples were dissolved in MeCN—water mixtures. Spectroscopic measurements were performed on a Jasco FP 8300 spectrofluorometer. Quartz cuvettes with path length of 1 cm were used.
The spectroscopic properties of the target conjugates were determined in PBS. […] Compounds with Q=O have absorption bands in the green-yellow region while Q=CMe2 derivatives absorb in the red (up to 700 nm). All of the compounds have moderate to high absorption coefficients and significant fluorescence. The spectroscopic details can be found in Table 1. In the table, λmax means absorption maximum; λem means fluorescence emission maximum; s means molar absorption coefficient (at the absorption maximum).

[2] = Uncaging experiments, LED irradiation followed by HPLC-UV-MS
Procedure: (§1) The uncaging experiments were performed using green (4 W input power, λmax=549 nm half-width: 16 nm, output power: 72 mW), orange (4 W input power, λmax=605 nm half-width: 10 nm, output power: 140 mW) and red (4 W input power, λmax=658 nm half-width: 10 nm, output power: 210 mW) LEDs as light source. Sample solutions were prepared, each containing 1 ml of solvent (90% v/v water-MeCN or 90% PBS-MeCN or 100% methanol for the photochemical quantum yield determination) and 0.1 mM or 0.05 mM concentration of the photoactivatable conjugates. The samples were irradiated for a given time using continuous water cooling for the light source. Then, the samples were transferred to the HPLC-UV-MS system and the chromatograms were recorded. The traces at 195 nm, 254 nm or 369 nm (dependent on the cargo moieties) and at the absorption maxima of the photoremovable protecting groups (530 nm, 570 nm or 640 nm) were compared and the corresponding peaks were integrated and compared to reference calibration sets. The possible photoproducts were identified by their corresponding m/z value and also from the UV/VIS spectra from the DAD-equipped instrument. For the dark stability experiments, the HPLC sample solutions were kept in the dark and chromatograms were recorded multiple times.
The photouncaging was evaluated by HPLC-MS using green (4 W input power, λmax=549 nm half-width: 16 nm, output power: 72 mW), orange (4 W input power, λmax=605 nm half-width: 10 nm, output power: 140 mW) and red (4 W input power, λmax=658 nm half-width: 10 nm, for Q=CMe2 output power: 210 mW) LED irradiation. For all compounds the experiments were performed in 90% water/MeCN mixtures as well as in 90% PBS/MeCN (0.1 mM concentration). In all cases, the irradiation led to the release of the model active agents with significant differences based on the photoremovable protecting group, cargo unit and the connecting chemical moiety as well as on the water content of the uncaging medium. Comparing the green light absorbing target conjugates, irradiation of 39 led to the release of 54% phenylacetic acid in 60 s (FIG. 6b), while 180 s (for 50%) was required for the same result in case of 41. Approximately 65% of phenylacetic acid was released after 180 s of irradiation with orange light from model target conjugate 41 (FIG. 6a). The current state of the art BODIPY derivative (for the structure, see the next section),^20,21 released only 12% phenylacetic acid after irradiation for 1800 s. Contrary to the general expectations that increasing the wavelength diminishes photolysis rates, the uncaging of the redshifted Q=CMe2 derivative 43 was also very effective, reaching >70% release of phenylacetic acid in 120 s after red light irradiation (FIG. 6c). The high efficiency of 43 as a red light-activatable photoremovable protecting group was also compared to a π-extended BODIPY derivative (substrate 7 in REF^21, using methanol as the solvent in a concentration of 0.1 mM), the current state of the art in this region of visible light.
Importantly, except in the case of compounds wherein the connecting chemical moiety was a carbonate moiety (i.e., compound 51, FIG. 6f), the target conjugates were stable in water as well as in PBS for 24 hours in the dark. The stability and uncaging rates of several leaving groups was also assessed. Comparing the most important functional groups (carboxylic acid, amine, phenol, alcohol) in potential active agents connected via the typical linkages in the target conjugates, the carbonate bond was the most labile (compound 51, >70% decomposition in 30 s with red light at 50% power) although the long-term dark stability was poor. None of the other model active agents were released in significant quantities, however, after 24-28 hours in the dark (for dark stability data see FIGS. 6a-6h, right side).
Using HPLC-MS, not only the appearance of the released model active agents could be monitored but also the products of photolysis were detectable. […]

[3] = Uncaging quantum yield determination relative to BODIPY reference; details: for ε × Φu, uncaging cross-section / quantum efficiency: at the wavelength in parentheses beside each value (538-660 nm); for Φu, uncaging quantum yield: calculated from active agent release; for Φu, uncaging quantum yield / Φdeg, degradation quantum yield: green light irradiation; for Φdeg, degradation quantum yield: calculated from the disappearance of the target conjugate
Procedure: The relative photochemical quantum yields of the uncaging reactions together with the degradation quantum yields were determined from the results of the quantitative HPLC-UV experiments. In all cases, green light irradiation was used since all target conjugates absorbed in this range as well as the reference BODIPY. The photochemical quantum yields were determined using the following equation:
[formula] • where • Φu is the photochemical quantum yield of the sample • Φu,ref is the photochemical quantum yield of the reference • k is the obtained reaction rate constant of the photoreaction of the sample • kref is the obtained reaction rate constant of the photoreaction of the reference • c is the concentration of the sample • cref is the concentration of the reference • V is the volume of the sample • Vref is the volume of the reference • a is the absorption correction factor of the sample • aref is the absorption correction factor of the reference
The absorption correction factors (a) were determined from the molar absorption coefficients and the green LED emission data obtained by the fluorimeter. […] In other words, the transmittance at each wavelength together with the emission data of the light source can be used to calculate the percentage of absorbed photons according to the following equation:
[formula] • where • T(λ) is the transmittance at each wavelength (determined from the molar absorption coefficients) • F(λ) is the LED emission at each wavelength • λmin, λmax is the LED emission range.
The rate constants of the photoreactions were determined by considering the reactions monoexponential with an initial linear phase (up to 10-20% degradation). First, the concentration vs. HPLC-UV peak were determined for each cargo moieties. […] The rate constants were determined for both the reference (with known Φu) and the sample. For reference, a commonly known BODIPY derivative was used with a similar phenylacetic acid-derived cargo unit (substrate 7 from REF^40), Φu=0.15%:
The calculated photochemical quantum yields together with uncaging cross-sections or quantum efficiencies (product of the molar absorption coefficient at a given wavelength, shown in parentheses and the photochemical quantum yield) are shown in Table 2. In the table, Φu is the photochemical quantum yield of the release; Φdeg is the photochemical quantum yield of degradation; ε×Φu is the uncaging cross-section or quantum efficiency of the release at a given wavelength in parentheses.

[4] = Dark stability experiments (HPLC); details: water and PBS, 24 hours in the dark
Procedure: as §1, with “The traces at 195 nm, 254 nm or 369 nm (dependent on the cargo moieties) and at the absorption maxima of the photoremovable protecting groups (530 nm, 570 nm or 640 nm) were compared and the corresponding peaks were integrated and compared to reference calibration sets. The possible photoproducts were identified by their corresponding m/z value and also from the UV/VIS spectra from the DAD-equipped instrument.” left out
Importantly, except in the case of compounds wherein the connecting chemical moiety was a carbonate moiety (i.e., compound 51, FIG. 6f), the target conjugates were stable in water as well as in PBS for 24 hours in the dark. The stability and uncaging rates of several leaving groups was also assessed. […] None of the other model active agents were released in significant quantities, however, after 24-28 hours in the dark (for dark stability data see FIGS. 6a-6h, right side).

Question: Which results are given for `CC(OC(=O)Cc1ccccc1)c1c2ccc(=[N+]3CCCC3)cc-2oc2cc(N3CCCC3)ccc12.[I-]` (stereo not drawn) [Compound 41, 1-(9-(1-(2-phenylacetoxy)ethyl)-6-(pyrrolidin-1-yl)-3H-xanthen-3-ylidene)pyrrolidin-1-ium iodide]?
Answer: λem (fluorescence emission maximum) [1]: 592 nm; λmax (absorption maximum) [1]: 570 nm; ε (molar absorption coefficient) [1]: 70 000 M^−1cm^−1; irradiation time required for 50% release of phenylacetic acid ([2]; green light): 180 s; release of phenylacetic acid ([2]; orange light, 180 s): Approximately 65%; ε × Φu, uncaging cross-section / quantum efficiency [3]: 1020 M⁻¹ cm⁻¹; Φu, uncaging quantum yield [3]: 1.5%; Φdeg, degradation quantum yield [3]: 1.9%

Question: What does the source list for `CC(OC(=O)Cc1ccccc1)C1=C2C=CC(=[N+]3CCCC3)C=C2C(C)(C)c2cc(N3CCCC3)ccc21.[I-]` (stereo not drawn) [Compound 43, 1-(9,9-dimethyl-10-(1-(2-phenylacetoxy)ethyl)-7-(pyrrolidin-1-yl)anthracen-2 (9H)-ylidene)pyrrolidin-1-ium iodide]?
Answer: λem (fluorescence emission maximum) [1]: 674 nm; λmax (absorption maximum) [1]: 641 nm; ε (molar absorption coefficient) [1]: 86 000 M^−1cm^−1; increase in the photolysis rate versus π-extended BODIPY derivative ([2]; methanol, 0.1 mM, red light): approximately 5 fold; release of phenylacetic acid ([2]; red light, 120 s): > 70%; ε × Φu, uncaging cross-section / quantum efficiency [3]: 1400 M⁻¹ cm⁻¹; Φu, uncaging quantum yield [3]: 1.7%; Φdeg, degradation quantum yield [3]: 2.2%

Question: For `CC(OC(=O)Oc1ccccc1)C1=C2C=CC(=[N+]3CCCC3)C=C2C(C)(C)c2cc(N3CCCC3)ccc21.[I-]` (stereo not drawn) [Compound 51, 1-(9,9-dimethyl-10-(1-((phenoxycarbonyl)oxy)ethyl)-7-(pyrrolidin-1-yl)anthracen-2 (9H)-ylidene)pyrrolidin-1-ium iodide], which “λem (fluorescence emission maximum)” value [1] is on record?
Answer: Its value is 676 nm.

Question: And the “λmax (absorption maximum)” value [1]?
Answer: Its value is 643 nm.

Question: What about the “ε (molar absorption coefficient)” value [1] of the same compound?
Answer: The value was 73 300 M^−1cm^−1.

Question: What about the decomposition ([2]; red light at 50% power, 30 s) of the same compound?
Answer: Its decomposition is over 70%.

Question: What about the dark stability [4] of the same compound?
Answer: The dark stability was “reduced and poor”.

Question: And the “ε × Φu, uncaging cross-section / quantum efficiency” value [3]?
Answer: The value was 13 200 M^−1cm^−1.

Question: And the “Φu, uncaging quantum yield” value [3]?
Answer: The value was 18%.

Question: And the “Φdeg, degradation quantum yield” value [3]?
Answer: Its value is 25%.
